Results as given in patent US8193333B2, “Cancer therapy using Bcl-Xl-specific siNA” (Centre Regional de Lutte Contre le Cancer-Centre Francois …, priority 2006, dated 2012).

Assays:
Type in all cases: cell-based, human
Bcl-XL protein = assay: Western blot of Bcl-XL protein expression in tumour cell lines after siRNA transfection
Description: SKOV3, OAW42, OAW42-R10, IGROV1 and IGROV1-R10 human ovarian adenocarcinoma cell lines, GL15 glioblastoma cell line, and NCI-H28 mesothelioma cell line were obtained from ECACC or ATCC. OAW42, OAW42-R10 cells were grown in DMEM (GIBCO-BRL) supplemented with 10% foetal calf serum (GIBCO-BRL), 2 mM Glutamax™ (GIBCO-BRL), 1 mM sodium pyruvate (GIBCO-BRL), 20 UI/L human recombinant insulin (LILLY), 33 mM sodium bicarbonate and 20 mM HEPES All the other cell lines were grown in RPMI 1640 medium (GIBCO-BRL) supplemented with 10% foetal calf serum (GIBCO-BRL), 2 mM Glutamax™ (GIBCO-BRL), 33 mM sodium bicarbonate and 20 mM HEPES. Cells were maintained at 37° C. in a 5% CO2 humidified atmosphere, and split twice a week by trypsinization.
(§1) Exponentially growing cells were exposed to CDDP for 2 hours at 37° C., in serum free medium. After exposure to the drug, the cell layers were rinsed and incubated in complete growth medium.
(§2) The siRNA duplexes were transfected according to the recommended procedure by using the Oligofectamine Reagent and Opti-MEM medium (INVITROGEN LIFE TECHNOLOGIES). 30-40% confluent cells were transfected in 25 cm^2 flasks with different concentrations of siXL1, siRNA Mcl-1 or siRNA control and incubated at 37° C., 5% CO2 for 4 hours. Next, 20% fetal bovin serum was added to reach a final concentration of 10% foetal bovin serum in the 25 cm^2 flask.
(§3) Cells were rinsed with ice cold PBS and lysed in 150 mM NaCl, 50 mM Tris-HCl pH 8, 1% Triton X100, 4 mM PMSF, 2 mM Aprotinin, 5 mM EDTA, 10 mM NaF, 10 mM NaPPi, 1 mM Na3VO4 for 30 min on ice. Lysates were clarified by centrifugation at 10000 g for 10 min at 4° C. and protein concentrations were determined using the Bradford assay (BIO-RAD). Equal amounts of total cellular protein (20 μg) were resolved in a Bis-tris-HCL buffered (pH 6.4) 4-12% polyacrylamide gel (NuPAGE® Novex® 4-12% Bis-tris gel, INVITROGEN) for 35 min at 200V and electrophoretically transferred on a PVDF membrane (MILLIPORE) for 75 min at 30V. The membrane was blocked for 1 hour at room temperature in T-TBS (132 mM NaCl, 20 mM Tris-HCl pH 7.6, 0.05% Tween 20) supplemented with 5% non-fat dry milk. The membrane was incubated for 1 hour at room temperature in T-TBS-milk with the following primary antibodies: anti-Bcl-XL/S (1:500, S18 SANTA-CRUZ BIOTECHNOLOGY), anti-PARP (1:1000, CELL-SIGNALING TECHNOLOGY), anti-caspase-3 (1:1000, BD BIOSCIENCES PHARMINGEN) anti-cleaved caspase-3 (1:1000, CELL-SIGNALING TECHNOLOGY), anti-alpha-tubulin (1:3000, SIGMA) and anti-Mcl-1 (1:750, S19 SANTA-CRUZ BIOTECHNOLOGY). After three washes with T-TBS, the membrane was incubated for 1 h at room temperature in T-TBS-milk with the adequate peroxidase conjugated secondary antibody (Anti-rabbit IgG, CELL-SIGNALING TECHNOLOGY, and anti-mouse IgG, AMERSHAM). After 3 washes with T-TBS and one with TBS, the immunoreactivity was detected by enhanced chemiluminescence (ECL kit, AMERSHAM).

Bcl-XL mRNA = assay: RT-PCR of Bcl-XL mRNA in SKOV3 cells after siRNA transfection; conditions: 72 h after transfection, FIG. 1A
Description: as §2
One μg of total RNA, extracted by RNAeasy kit (QIAGEN), was reverse-transcripted with 200 units Omniscript reverse transcriptase (QIAGEN) in first strand reaction conditions recommended by the manufacturer. The targeted cDNA were amplified using the following pair of primers, Bcl-XL/S forward 5′-[…]-3′ (SEQ ID NO: 11) and Bcl-XL/S reverse 5′-gtagagtggatggtcagtg-3′ (SEQ ID NO:12; Bargou et al., Int. J. Cancer, 1995, 16, 854-859), and amplified under the following cycling conditions: pre-incubation 94° C. for 5 min then 94° C. for 40 sec, 58° C. for 60 sec and 72° C. for 40 sec for 30 cycles, post-incubation 72° C. for 3 min within a Mastercycleur Gradient (EPPENDORF). The use of these primers allows the migration of Bcl-Xs and Bcl-XL PCR products as two distinct bands of respectively 576 and 765 bp.

Mcl-1 protein = assay: Western blot of Mcl-1 protein expression in SKOV3 cells; conditions: FIG. 11B
Description: as §2
Cells were rinsed with ice cold PBS and lysed in 150 mM NaCl, 50 mM Tris-HCl pH 8, 1% Triton X100, 4 mM PMSF, 2 mM Aprotinin, 5 mM EDTA, 10 mM NaF, 10 mM NaPPi, 1 mM Na3VO4 for 30 min on ice. Lysates were clarified by centrifugation at 10000 g for 10 min at 4° C. and protein concentrations were determined using the Bradford assay (BIO-RAD). Equal amounts of total cellular protein (20 μg) were resolved in a Bis-tris-HCL buffered (pH 6.4) 4-12% polyacrylamide gel (NuPAGE® Novex® 4-12% Bis-tris gel, INVITROGEN) for 35 min at 200V and electrophoretically transferred on a PVDF membrane (MILLIPORE) for 75 min at 30V. The membrane was blocked for 1 hour at room temperature in T-TBS (132 mM NaCl, 20 mM Tris-HCl pH 7.6, 0.05% Tween 20) supplemented with 5% non-fat dry milk. […] After 3 washes with T-TBS and one with TBS, the immunoreactivity was detected by enhanced chemiluminescence (ECL kit, AMERSHAM).

SKOV3 cells = assay: Apoptosis induction in SKOV3 cells (cell and nuclear morphology after DAPI, caspase 3 activation and PARP cleavage by Western blot)
Description: as §1, §2, §3
After treatment, detached cells were collected separately and adherent cells were dissociated by trypsin/EDTA. Adherent and detached cells were then pooled and centrifuged at 1500×g for 5 min before being fixed in 70% ethanol. The cells were then collected on a polylysine-coated glass slide by cytocentrifugation, before a 30 min room temperature incubation in a 1 μg/ml DAPI aqueous solution (BOEHRINGER MANNHEIM). Slides were thereafter extensively washed in distilled water and mounted in Mowiol (CALBIO-CHEM).

[1] = SKOV3 cells, 100 nM siXL1, FIG. 4

## siXL1: double-stranded siRNA blocking Bcl-XL expression; sense 5′-auuggugagucggaucgcatt-3′ (SEQ ID NO: 5), anti-sense 5′-ugcgauccgacucaccaautt-3′ (SEQ ID NO: 6) (sense AUUGGUGAGUCGGAUCGCATT; antisense UGCGAUCCGACUCACCAAUTT; chemistry not given here)
Bcl-XL protein; SKOV3 cells
  optimal concentration: 150 nM
  persistence of the siXL1 effect: 96 h
Bcl-XL protein; SKOV3 cells, 25 nM, FIG. 4
  effect on Bcl-XL protein expression at lower dose: greatly reduced and delayed
Bcl-XL protein; [1]
  time of maximum decrease of Bcl-XL protein expression: 72 h
  time of reappearance of Bcl-XL protein expression: ≥ 144 h
Bcl-XL protein; SKOV3 cells, 24 hours after siXL1 transfection
  Bcl-XL protein expression 24 hours after transfection: reduced
Bcl-XL protein; SKOV3 cells, 72 h after transfection, FIG. 3
  effect of various concentrations on Bcl-XL protein expression: dose-dependent
Bcl-XL protein; SKOV3 cells, 72 hours after siRNA transfection, cisplatin 5 and 20 μg/ml, FIG. 9
  Bcl-XL protein expression 24 hours after exposure to cisplatin: disappears almost completely
Bcl-XL protein; SKOV3 cells, 72 hours after transfection, FIG. 1C
  Bcl-XL protein expression after 72 hours: disappeared totally
Bcl-XL protein; SKOV3 cells, 144 hours after transfection, combination with 20 μg/ml cisplatin, FIG. 9
  Bcl-XL protein expression 96 hours after cisplatin exposure: reappears
Bcl-XL protein; ovarian carcinoma, glioblastoma or mesothelioma cells, 72 h after transfection, FIGS. 2A&B
  Bcl-XL protein expression in various tumor cell lines: extinction
Bcl-XL mRNA
  Bcl-XL mRNA level (RT-PCR): greatly reduces
Mcl-1 protein
  dose dependence of extinction of Mcl-1 protein expression: dose-dependent
SKOV3 cells; 24 h, combination with 20 μg/ml cisplatin
  caspase 3 activation and PARP cleavage after 24 h exposure to cisplatin: detectable
SKOV3 cells; 72 h after transfection, FIG. 5
  apoptosis induction (cellular and nuclear morphology, caspase 3 cleavage): moderate apoptosis
SKOV3 cells; alone 150 nM or in combination 75 nM each, FIGS. 13 and 14
  apoptosis / cell death (nuclear fragmentation and condensation, morphology, pre-G1 peak): moderate apoptosis
